The values below come from patent US11724999B2, “Inhibitors of RAS-effector protein interactions” (Oxford University Innovation Limited, priority 2018, dated 2023).

The target of the experiment is T1, GST-human KRas166 (G12V) GPPNHP (Homo sapiens, UniProt P01116, G12V).
T1 construct: made in house; host or cells: E. coli C41(DE3)
Kind of experiment: KRas small-molecule screening by SPR (BIACORE T200). In kind it is binding. Particulars: compound at final concentration of 100 uM; immobilised GST-KRAS166 (G12V) GPPNHP, GST reference channel. On the procedure: For SPR assays pGEX-KRAS(G12V) plasmid was transformed into E. coli C41(DE3). Bacterial cells were cultured at 37° C. to an OD600 of 0.6 and induced with IPTG (final 0.1 mM) at 18° C. overnight. The GST fusion proteins were extracted from bacteria pellets after cell disruption in 140 mM NaCl, 2.7 mM KCl, […], 1.8 mM KH2PO4, 1 mM EDTA, 2 mM MgCl2 pH 7.4 and purified by glutathione-sepharose column chromatography (GE Healthcare), eluting with 50 mM Tris-HCl pH8.0, 10 mM reduced glutathione, 1 mM DTT, 2 mM MgC2. The eluted proteins were dialysed against 50 mM Tris-HCl pH8.0, 1 mM DTT, 2 mM MgCl2 and concentrated to 10 mg/ml using a Biomax-30 […]-15 centrifugal filter device (Millipore). Purified KRAS protein was loaded with GPPNHP as described elsewhere (Pacold et al., 2000). Loaded protein was then purified by gel filtration on a HiLoad Superdex-75 HR column (GE Healthcare) in 1×PBS pH7.4, 5 mM MgCl2 and concentrated for storage.
To a previously immobilized CM5 chip (GE Healthcare BR-1005-30) with anti GST antibody via amine coupling method, GST in channel 1 and GST-human KRas166 (G12V) GPPNHP in channel 2 were immobilised. GST was immobilised between 2,000 and 5,000 Response units. KRAS166 (G12V) was immobilized between 10,000 to 15,000 Response Units.
In a 96 well plate, compounds were diluted in […], 5 mM MgCl2 and 5% DMSO Buffer to a final concentration of 100 uM. DCAI was used as positive control. Experiment also included a solvent correction curve for 5% DMSO. Screening and evaluation of the protein immobilization and the compounds screening was done accordingly to the BIACORE T200 control and evaluation software.
Protein immobilisation: 10,000 RU; average fragment 300 Da in size. Rmax=(MWA/MWL)×RL×SM MWA is the molecular weight of the analyte in Da MWL is the molecular weight of the ligand in Da RL is the immobilization level in RU SM is the molar stoichiometry (assume 1:1) Rmax=300/47,500×10,000×1 Rmax=63 RU. Cell Viability Assay protocols

For `CN1CCC(N(C)C(=O)NC[C@@H]2COc3ccc(OCc4ccccc4)cc3O2)CC1` [Example 81, 3-(7-Benzyloxy-2,3-dihydro-benzo[1,4]dioxin-2-ylmethyl)-1-methyl-1-(1-methyl-piperidin-4-yl)-urea], the “SPR Response Units” value is 75 Response Units.
Regarding `c1ccc(COc2ccc3c(c2)O[C@H](CNC2CCc4ccccc42)CO3)cc1` (stereo partly drawn) [Example 48, ((R)-7-Benzyloxy-2,3-dihydro-benzo[1,4]dioxin-2-ylmethyl)-indan-1-yl-amine], the “SPR Response Units” value was 24 Response Units.
The same measure for `CN1CCN(Cc2ccc(C(=O)NC[C@@H]3COc4ccc(OCc5cncc(Cl)c5)cc4O3)o2)CC1` [Example 25, 5-(4-Methyl-piperazin-1-ylmethyl)-furan-2-carboxylic acid [(R)-7-(5-chloro-pyridin-3-ylmethoxy)-2,3-dihydro-benzo[1,4]dioxin-2-ylmethyl]-amide]: 45 Response Units; for `O=C(NC[C@@H]1COc2ccc(OCc3cn[nH]c3)cc2O1)c1ncco1` [Example 20, Oxazole-2-carboxylic acid [(R)-7-(1H-pyrazol-4-ylmethoxy)-2,3-dihydro-benzo[1,4]dioxin-2-ylmethyl]-amide]: 40 Response Units.
Take `CN1CCC(CC(=O)NC[C@@H]2COc3ccc(OCc4ccccc4)cc3O2)CC1` [Example 8, N-((R)-7-Benzyloxy-2,3-dihydro-benzo[1,4]dioxin-2-ylmethyl)-2-(1-methyl-piperidin-4-yl)-acetamide]: the “SPR Response Units” value was 24 Response Units.
In the case of `CN1CCN(C(=O)NC[C@@H]2COc3ccc(OCc4ccccc4)cc3O2)CC1` [Example 82, 4-methyl-piperazine-1-carboxylic acid ((R)-7-benzyloxy-2,3-dihydro-benzo[1,4]dioxin-2-ylmethyl)-amide] it was 63 Response Units.
Regarding `O=C(NCc1cccnc1)C1COc2ccc(OCc3ccccc3)cc2O1` (stereo not drawn) [Example 67, 7-Benzyloxy-2,3-dihydro-benzo[1,4]dioxine-2-carboxylic acid (pyridin-3-ylmethyl)-amide], the “SPR Response Units” value was determined as 49 Response Units.
In the case of `O=C(NCc1ccnc(F)c1)C1COc2ccc(OCc3ccccc3)cc2O1` (stereo not drawn) [Example 72, 7-Benzyloxy-2,3-dihydro-benzo[1,4]dioxine-2-carboxylic acid (2-fluoro-pyridin-4-ylmethyl)-amide] it was 12 Response Units; in that of `CN1CCC(COc2ccc3c(c2)O[C@H](CNC(=O)c2ncco2)CO3)CC1` [Example 21, Oxazole-2-carboxylic acid [(R)-7-(1-methyl-piperidin-4-ylmethoxy)-2,3-dihydro-benzo[1,4]dioxin-2-ylmethyl]-amide], 9 Response Units; in that of `O=C(NCc1ccc(CN2CCOCC2)cc1)C1COc2ccc(OCc3ccccc3)cc2O1` (stereo not drawn) [Example 65, 7-Benzyloxy-2,3-dihydro-benzo[1,4]dioxine-2-carboxylic acid 4-morpholin-4-ylmethyl-benzylamide], 46 Response Units.
The same measure for `O=C(NCC1COCCN1)C1COc2ccc(OCc3ccccc3)cc2O1` (stereo not drawn) [Example 76, 7-Benzyloxy-2,3-dihydro-benzo[1,4]dioxine-2-carboxylic acid (morpholin-3-ylmethyl)-amide]: 48 Response Units; for `c1ccc(COc2ccc3c(c2)O[C@H](CNCC2COCCN2)CO3)cc1` (stereo partly drawn) [Example 57, ((R)-7-Benzyloxy-2,3-dihydro-benzo[1,4]dioxin-2-ylmethyl)-morpholin-3-ylmethyl-amine]: 29 Response Units; for `CN1CCN(Cc2ccc(C(=O)NC[C@@H]3COc4ccc(OCc5ccc(Cl)cn5)cc4O3)o2)CC1` [Example 26, 5-(4-Methyl-piperazin-1-ylmethyl)-furan-2-carboxylic acid [(R)-7-(5-chloro-pyridin-2-ylmethoxy)-2,3-dihydro-benzo[1,4]dioxin-2-ylmethyl]-amide]: 48 Response Units.
For the compound `O=C(CC1CCNCC1)NC[C@@H]1COc2ccc(OCc3ccccc3)cc2O1` [Example 16, N-((R)-7-Benzyloxy-2,3-dihydro-benzo[1,4]dioxin-2-ylmethyl)-2-piperidin-4-yl-acetamide], the “SPR Response Units” value is 25 Response Units.
On to `O=C(NC[C@@H]1COc2ccc(OCc3ccccc3)cc2O1)C1CCOCC1` [Example 5, Tetrahydro-pyran-4-carboxylic acid ((R)-7-benzyloxy-2,3-dihydro-benzo[1,4]dioxin-2-ylmethyl)-amide], for which the “SPR Response Units” value turned out to be 25 Response Units.
In the case of `O=C(NCc1cn[nH]c1)C1COc2ccc(OCc3ccccc3)cc2O1` (stereo not drawn) [Example 73, 7-Benzyloxy-2,3-dihydro-benzo[1,4]dioxine-2-carboxylic acid (1H-pyrazol-4-ylmethyl)-amide] it was 33 Response Units.
In the case of `O=C(NCc1ccncc1)C1COc2ccc(OCc3ccccc3)cc2O1` (stereo not drawn) [Example 68, 7-Benzyloxy-2,3-dihydro-benzo[1,4]dioxine-2-carboxylic acid (pyridin-4-ylmethyl)-amide] it was 57 Response Units; in that of `O=C(Cc1cccnc1)NC[C@@H]1COc2ccc(OCc3ccccc3)cc2O1` [Example 11, N-((R)-7-Benzyloxy-2,3-dihydro-benzo[1,4]dioxin-2-ylmethyl)-2-pyridin-3-yl-acetamide], 68 Response Units.
In the case of `N[C@H]1CC[C@@H](NC(=O)C2COc3ccc(OCc4ccccc4)cc3O2)CC1` (stereo partly drawn) [Example 75, 7-Benzyloxy-2,3-dihydro-benzo[1,4]dioxine-2-carboxylic acid (4-amino-cyclohexyl)-amide] it was 51 Response Units; in that of `O=C1CN(c2ccccn2)C(=O)N1C[C@@H]1COc2ccc(OCc3ccccc3)cc2O1.O=CO` [Example 78, 3-((R)-7-Benzyloxy-2,3-dihydro-benzo[1,4]dioxin-2-ylmethyl)-1-pyridin-2-yl-imidazolidine-2,4-dione], 28 Response Units; in that of `O=C(NCc1cccc(CN2CCOCC2)c1)C1COc2ccc(OCc3ccccc3)cc2O1` (stereo not drawn) [Example 66, 7-Benzyloxy-2,3-dihydro-benzo[1,4]dioxine-2-carboxylic acid 3-morpholin-4-ylmethyl-benzylamide], 53 Response Units.
Turning to `O=C(NC[C@@H]1COc2ccc(OCc3ccccc3)cc2O1)C1CCN(Cc2ccco2)CC1` [Example 15, 1-Furan-2-ylmethyl-piperidine-4-carboxylic acid ((R)-7-benzyloxy-2,3-dihydro-benzo[1,4]dioxin-2-ylmethyl)-amide], the “SPR Response Units” value is 33 Response Units.
The same measure for `Cc1n[nH]c(C)c1CC(=O)NC[C@@H]1COc2ccc(OCc3ccccc3)cc2O1` [Example 12, N-((R)-7-Benzyloxy-2,3-dihydro-benzo[1,4]dioxin-2-ylmethyl)-2-(3,5-dimethyl-1H-pyrazol-4-yl)-acetamide]: 53 Response Units; for `O=C(C1COc2ccc(OCc3ccccc3)cc2O1)N1CCN(CC2CCOCC2)CC1` (stereo not drawn) [Example 64, (7-Benzyloxy-2,3-dihydro-benzo[1,4]dioxin-2-yl)-[4-(tetrahydro-pyran-4-ylmethyl)-piperazin-1-yl]-methanone]: 36 Response Units.
